Values of other authors as cited in patent publication US20130309333A1, “METHOD AND COMPOSITION FOR TREATING FELINE SKIN DISORDERS” (priority 2011, published 2013).

Test system: cats
Conditions: general knowledge

## Nc1cc(N2CCCCC2)nc(N)[n+]1[O-] [minoxidil]
  toxicity to cats: highly toxic to cats
